ChEMBL document CHEMBL2203072, “Enhanced anti-influenza agents conjugated with anti-inflammatory activity” (J Med Chem, 2012)
The source made the active and inactive calls. No cut-off for these calls is given here.

Key:
[1] = test system: Plasma; assay: Metabolic stability in Sprague-Dawley rat plasma after 24 hrs by LC-QTOF MS analysis; format: ADME, cell-free
[2] = target: Neuraminidase (Influenza A virus (strain A/Wilson-Smith/1933 H1N1) (Influenza A virus(strain A/WS/1933 H1N1)), UniProt P03470); assay: Inhibition of Influenza A virus A/WSN/1933(H1N1)) neuraminidase in the presence of 2'-(4-methyl-umbelliferyl)-alphaD-N-acetylneuraminic acid substrate after 10 mins by fluorometric assay
[3] = test system: Influenza A virus; assay: Antiviral activity against Influenza A virus (A/VietNam/1194/2004(H5N1)) NIBRG-14 infected in BALB/c mouse assessed as protection from virus-induced death at 12 umol/kg/day, intranasally administered bid on days 1 to 4 and day 0 of infection measured over 14 days; format: functional, organism-based
[4] = test system: MDCK; assay: Cytotoxicity against MDCK cells at 100 uM; format: cell-based, Canis lupus familiaris; conditions: dog
[5] = test system: Plasma; assay: Metabolic stability in Sprague-Dawley rat plasma after 24 hrs by MALDI-TOF analysis; format: ADME, cell-free
[6] = test system: Influenza A virus; assay: Antiviral activity against Influenza A virus (A/California/07/2009(H1N1)) infected in BALB/c mouse assessed as protection from virus-induced death at 1.2 umol/kg/day, intranasally administered bid on days 1 to 4 and day 0 of infection measured after 14 days; format: functional
[7] = test system: Influenza A virus; assay: Antiviral activity against Influenza A virus (A/VietNam/1194/2004(H5N1)) NIBRG-14 infected in BALB/c mouse assessed as protection from virus-induced death at 1.2 umol/kg/day, intranasally administered bid on days 1 to 4 and day 0 of infection measured over 14 days; format: functional, organism-based
[8] = test system: Influenza A virus; assay: Antiviral activity against Influenza A virus (A/California/07/2009(H1N1)) infected in BALB/c mouse assessed as protection from virus-induced death at 0.12 umol/kg/day, intranasally administered bid on days 1 to 4 and day 0 of infection measured over 14 days; format: functional
[9] = test system: Influenza A virus; assay: Antiviral activity against Influenza A virus (A/WSN/1933(H1N1)) infected in MDCK cells assessed as inhibition of virus induced cytopathic effect; format: functional, organism-based
[10] = test system: Influenza A virus; assay: Antiviral activity against Influenza A virus (A/California/07/2009(H1N1)) infected in BALB/c mouse assessed as protection from virus-induced death at 0.012 umol/kg/day, intranasally administered bid on days 1 to 4 and day 0 of infection measured over 14 days; format: functional
[11] = test system: Plasma; assay: Metabolic stability in Sprague-Dawley rat plasma assessed as release of zanamivir and caffiec acid after 24 hrs by MALDI-TOF analysis; format: ADME, cell-free
[12] = test system: Plasma; assay: Metabolic stability in Sprague-Dawley rat plasma assessed as release of zanamivir and caffiec acid after 24 hrs by LC-QTOF MS analysis; format: ADME, cell-free
[13] = test system: RAW264.7; assay: Antiinflammatory activity in LPS-activated mouse RAW264.7 cells assessed as inhibition of LPS induced IL6 production treated 30 mins prior to LPS challenge measured after 6 hrs by RT-PCR analysis; format: functional, cell-based
[14] = test system: RAW264.7; assay: Antiinflammatory activity in LPS-activated mouse RAW264.7 cells assessed as inhibition of LPS induced TNFalpha production treated 30 mins prior to LPS challenge measured after 6 hrs by RT-PCR analysis; format: functional, cell-based
[15] = test system: Influenza A virus; assay: Antiviral activity against Influenza A virus (A/California/07/2009(H1N1)) infected in BALB/c mouse assessed as protection from virus-induced death at 12 umol/kg/day, intranasally administered bid on days 1 to 4 and day 0 of infection measured over 14 days; format: functional, organism-based
[16] = test system: Influenza A virus; assay: Antiviral activity against Influenza A virus (A/California/07/2009(H1N1)) infected in BALB/c mouse assessed as protection from virus-induced death at 1.2 umol/kg/day, intranasally administered bid on days 1 to 4 and day 0 of infection measured after 12 days; format: functional, organism-based
[17] = test system: Plasma; assay: Metabolic stability in Sprague-Dawley rat plasma assessed as compound degradation after 24 hrs by MALDI-TOF analysis; format: ADME, cell-free
[18] = test system: Mus musculus; assay: Antiinflammatory activity in mouse infected with Influenza A virus (A/VietNam/1194/2004(H5N1)) NIBRG-14 assessed as reduction in IL6 level in serum at 12 umol/kg/day, intranasally administered after 72 hrs by ELISA; format: functional, organism-based
[19] = test system: Mus musculus; assay: Antiinflammatory activity in mouse infected with Influenza A virus (A/VietNam/1194/2004(H5N1)) NIBRG-14 assessed as reduction in IFN-gamma level in serum at 12 umol/kg/day, intranasally administered after 72 hrs by ELISA; format: functional, organism-based
[20] = test system: Influenza A virus; assay: Antiviral activity against recombinant Influenza A virus (A/VietNam/1194/2004(H5N1)) NIBRG-14 assessed as inhibition of virus induced cytopathic effect; format: functional, organism-based
[21] = test system: Plasma; assay: Metabolic stability in Sprague-Dawley rat plasma assessed as compound degradation after 24 hrs by LC-QTOF MS analysis; format: ADME, cell-free
[22] = test system: Influenza A virus; assay: Ratio of zanamivir EC50 to compound EC50 for Influenza A virus (A/VietNam/1194/2004(H5N1)) NIBRG-14; format: functional
[23] = test system: Plasma; assay: Metabolic stability in Sprague-Dawley rat plasma assessed as formation of compound 6 after 24 hrs by MALDI-TOF analysis; format: ADME, cell-free
[24] = test system: Influenza A virus; assay: Antiviral activity against Influenza A virus (A/California/07/2009(H1N1)) infected in BALB/c mouse assessed as protection from virus-induced death at 0.0012 umol/kg/day, intranasally administered bid on days 1 to 4 and day 0 of infection measured over 14 days; format: functional, organism-based
[25] = test system: Plasma; assay: Metabolic stability in Sprague-Dawley rat plasma assessed as formation of compound 6 after 24 hrs by LC-QTOF MS analysis; format: ADME, cell-free

Neuraminidase (Influenza A virus (strain A/Wilson-Smith/1933 H1N1) (Influenza A virus(strain A/WS/1933 H1N1)), UniProt P03470), sequence (P03470 whole entry): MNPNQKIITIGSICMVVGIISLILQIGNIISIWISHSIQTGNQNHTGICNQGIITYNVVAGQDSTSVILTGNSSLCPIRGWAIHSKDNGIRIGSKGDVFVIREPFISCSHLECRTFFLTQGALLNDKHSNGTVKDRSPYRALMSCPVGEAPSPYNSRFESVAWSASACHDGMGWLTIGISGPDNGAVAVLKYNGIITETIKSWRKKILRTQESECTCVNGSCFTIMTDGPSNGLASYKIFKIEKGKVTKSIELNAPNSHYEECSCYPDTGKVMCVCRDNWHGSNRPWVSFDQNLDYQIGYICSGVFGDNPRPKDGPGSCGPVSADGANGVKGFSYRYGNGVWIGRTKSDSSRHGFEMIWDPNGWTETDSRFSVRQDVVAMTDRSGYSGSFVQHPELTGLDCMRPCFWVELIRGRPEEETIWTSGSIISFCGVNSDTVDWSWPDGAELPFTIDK

SMILES	IC50 [2]	Activity [4]	EC50 [9]	further results
CC(=O)N[C@H]1[C@H]([C@H](OC(=O)NCCCNC(=O)/C=C/c2ccc(O)c(O)c2)[C@H](O)CO)OC(C(=O)O)=C[C@@H]1NC(=N)N	41.3 nM	Non-toxic	5.1 nM	Stability [1]: Stable; Activity [3]: Active; Stability [5]: Stable; Activity [6]: 100%; Activity [7]: Active; Activity [8]: 50%; Activity [10]: inactive
CC(=O)N[C@H]1[C@H]([C@H](O)[C@H](O)CO)OC(C(=O)O)=C[C@@H]1N=C(N)N [ZANAMIVIR]		Non-toxic		
CC(=O)N[C@H]1[C@H]([C@H](O)[C@H](O)CO)OC(C(=O)OCCCOC(=O)/C=C/c2ccc(O)c(O)c2)=C[C@@H]1NC(=N)N	2850 nM	Non-toxic	25 nM	Stability [11]: Unstable; Stability [12]: Unstable
Nc1ccc(O)c(C(=O)O)c1 [MESALAMINE]	> 100000 nM	Non-toxic	> 100000 nM	Activity [13]: Dose-dependent effect; Activity [14]: Dose-dependent effect; Activity [15]: Active
CC(=O)N[C@H]1[C@H]([C@H](OC(=O)NCCCNC(=O)c2ccc3ccccc3c2O)[C@H](O)CO)OC(C(=O)O)=C[C@@H]1NC(=N)N	3.1 nM	Non-toxic	6.6 nM	
O=C(O)/C=C/c1ccc(O)c(O)c1 [CAFFEIC ACID]	> 100000 nM	Non-toxic	> 100000 nM	Activity [13]: Dose-dependent effect; Activity [16]: inactive; Activity [14]: Dose-dependent effect; Activity [15]: Active
CC(=O)N[C@H]1[C@H]([C@H](O)[C@H](O)CO)OC(C(=O)OCCCOC(=O)c2cc(N)ccc2O)=C[C@@H]1NC(=N)N	996 nM	Non-toxic	16 nM	
O=C(O)c1ccc2ccccc2c1O [CARBOXYNAPHTHOL]	> 100000 nM	Non-toxic	> 100000 nM	
CC(=O)N[C@H]1[C@H]([C@H](OC(=O)NCCCOC(=O)c2cc(N)ccc2O)[C@H](O)CO)OC(C(=O)O)=C[C@@H]1NC(=N)N	8.6 nM	Non-toxic	3.3 nM	Activity [13]: Dose-dependent effect; Stability [17]: Unstable; Activity [18]: Active; Activity [3]: inactive; Activity [14]: Dose-dependent effect; Activity [15]: Active; Activity [19]: Active; EC50 [20]: 430 nM
CC(=O)N[C@H]1[C@H]([C@H](OC(=O)NCCCOC(=O)c2ccc3ccccc3c2O)[C@H](O)CO)OC(C(=O)O)=C[C@@H]1NC(=N)N	0.7 nM	Non-toxic	50 nM	
CC(=O)N[C@H]1[C@H]([C@H](O)[C@H](O)CO)OC(C(=O)OCCCOC(=O)c2ccc3ccccc3c2O)=C[C@@H]1NC(=N)N	590 nM	Non-toxic		Stability [17]: Unstable; Stability [21]: Unstable
CC(=O)N[C@H]1[C@H]([C@H](O)[C@H](O)CO)OC(C(=O)O)=C[C@@H]1NC(=N)N [ZANAMIVIR]			3.5 nM	Activity [16]: inactive; Activity [18]: Active; Activity [3]: inactive; Activity [15]: Active; Activity [19]: Active
CC(=O)N[C@H]1[C@H]([C@H](O)[C@H](O)CO)OC(C(=O)OCCCOC(=O)/C=C/c2ccc3c(c2)OCO3)=C[C@@H]1NC(=N)N	3990 nM	Non-toxic	28 nM	
CC(=O)N[C@H]1[C@H]([C@H](OC(=O)NCCCOC(=O)c2ccc(O)c(O)c2)[C@H](O)CO)OC(C(=O)O)=C[C@@H]1NC(=N)N	2.9 nM	Non-toxic	53 nM	
CC(=O)N[C@H]1[C@H]([C@H](OC(=O)NCCCOC(=O)/C=C/c2ccc(O)c(O)c2)[C@H](O)CO)OC(C(=O)O)=C[C@@H]1NC(=N)N	2.9 nM	Non-toxic	1.4 nM	Activity [13]: Dose-dependent effect; Stability [17]: Unstable; Activity [18]: Active; Ratio EC50 [22]: 13; Stability [23]: Unstable; Activity [3]: Active; Activity [14]: Dose-dependent effect; Activity [24]: inactive; Activity [6]: Active; Stability [25]: Unstable; Activity [15]: Active; Activity [19]: Active; EC50 [20]: 50 nM; Activity [8]: Active; Activity [10]: 40%
CC(=O)N[C@H]1[C@H]([C@H](OC(=O)NCCCO)[C@H](O)CO)OC(C(=O)O)=C[C@@H]1NC(=N)N	11.7 nM	Non-toxic	105 nM	EC50 [20]: 820 nM
CC(=O)N[C@H]1[C@H]([C@H](OC(=O)NCCCOC(=O)/C=C/c2ccc3c(c2)OCO3)[C@H](O)CO)OC(C(=O)O)=C[C@@H]1NC(=N)N	5.4 nM	Non-toxic	66 nM	
O=C(O)/C=C/c1ccc2c(c1)OCO2	> 100000 nM	Non-toxic	> 100000 nM	Activity [13]: Dose-dependent effect; Activity [14]: Dose-dependent effect
